Experimental data published in ChEMBL document CHEMBL5727557, “SHP2 inhibitors and uses thereof” (2020).

Biological target: T1, Tyrosine-protein phosphatase non-receptor type 11 (Homo sapiens, UniProt Q06124)
T1 sequence (Q06124 whole entry): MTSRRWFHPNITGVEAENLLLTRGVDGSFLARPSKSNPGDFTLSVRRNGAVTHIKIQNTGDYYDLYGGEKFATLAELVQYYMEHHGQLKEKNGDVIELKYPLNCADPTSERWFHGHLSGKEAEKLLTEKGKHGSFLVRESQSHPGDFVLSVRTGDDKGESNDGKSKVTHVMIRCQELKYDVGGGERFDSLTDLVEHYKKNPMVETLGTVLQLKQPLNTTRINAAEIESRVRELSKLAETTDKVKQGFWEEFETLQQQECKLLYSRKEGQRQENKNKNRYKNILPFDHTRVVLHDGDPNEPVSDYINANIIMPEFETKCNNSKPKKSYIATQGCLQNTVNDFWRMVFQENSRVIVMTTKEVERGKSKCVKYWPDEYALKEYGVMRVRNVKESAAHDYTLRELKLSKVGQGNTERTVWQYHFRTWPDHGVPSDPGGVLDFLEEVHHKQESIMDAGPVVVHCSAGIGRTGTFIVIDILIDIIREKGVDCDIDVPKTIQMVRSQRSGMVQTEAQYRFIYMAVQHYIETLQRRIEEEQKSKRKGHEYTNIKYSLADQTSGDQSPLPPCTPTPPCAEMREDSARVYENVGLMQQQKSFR
Experiment: SHP2 Phosphatase Assay: IC50 values were determined at room temperature in 384-well black polystyrene plate, using a final reaction volume of 15 μl and the following assay buffer conditions: 60 mM Hepes (pH=7.2), 75 mM NaCl, 75 mM KCl, and 1 mM EDTA, 0.05% P-20, 5 mM dithiothreitol (DTT). Full length SHP2 enzyme (diluted to 0.1 nM in reaction buffer) were co-incubated with 1 uM IRS-1 peptide and 0.01 nM to 10 μM compounds of the disclosure for 60 min. The surrogate substrate DiFMUP (5 μL, […]) was added, and incubated at rt for 60 min. The reaction was then quenched by the addition of 5 μL of a 40 μM solution of bpV(Phen). The fluorescence signal was monitored using a microplate reader (Envision, Perkin-Elmer) using excitation and emission wavelengths of 360 nm and 450 nm, respectively. The inhibitor dose-response curves were analyzed using normalized IC50 regression curve fitting with control-based normalization.

Work on `CC1(CN)CCN(c2ncc(Sc3cccc(NC(=O)c4c(O)nc5cnccn5c4=O)c3Cl)[nH]c2=O)CC1` yielded an IC50 of under 50 nM.
